Targets include Carbonic anhydrase 1 (Homo sapiens, UniProt P00915); Carbonic anhydrase 2 (Homo sapiens, UniProt P00918); Carbonic anhydrase 4 (Homo sapiens, UniProt P22748); Carbonic anhydrase 6 (Homo sapiens, UniProt P23280).
Common to all, as to test: CA Inhibition Assay
What all share (conditions): pH 7.4

SMILES strings stand for the structures. Counter-ions that a name gives are not always drawn.

Carbonic anhydrase 6, sequence (P23280 whole entry): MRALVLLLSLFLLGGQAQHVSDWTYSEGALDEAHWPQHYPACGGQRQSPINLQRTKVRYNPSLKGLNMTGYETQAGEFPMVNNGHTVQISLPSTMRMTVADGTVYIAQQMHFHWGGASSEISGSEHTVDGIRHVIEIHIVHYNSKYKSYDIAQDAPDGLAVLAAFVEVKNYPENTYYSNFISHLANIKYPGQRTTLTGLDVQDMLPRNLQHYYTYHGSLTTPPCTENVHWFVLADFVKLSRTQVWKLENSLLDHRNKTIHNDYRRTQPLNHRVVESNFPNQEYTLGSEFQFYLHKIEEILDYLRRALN
Carbonic anhydrase 1, sequence (P00915 whole entry): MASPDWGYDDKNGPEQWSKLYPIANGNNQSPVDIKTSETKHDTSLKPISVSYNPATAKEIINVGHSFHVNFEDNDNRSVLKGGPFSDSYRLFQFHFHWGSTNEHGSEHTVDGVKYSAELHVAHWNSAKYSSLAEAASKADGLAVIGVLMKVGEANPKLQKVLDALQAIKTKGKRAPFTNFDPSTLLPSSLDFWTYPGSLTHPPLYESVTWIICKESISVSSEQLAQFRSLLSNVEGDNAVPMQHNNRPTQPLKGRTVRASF
Carbonic anhydrase 4, sequence (P22748 whole entry): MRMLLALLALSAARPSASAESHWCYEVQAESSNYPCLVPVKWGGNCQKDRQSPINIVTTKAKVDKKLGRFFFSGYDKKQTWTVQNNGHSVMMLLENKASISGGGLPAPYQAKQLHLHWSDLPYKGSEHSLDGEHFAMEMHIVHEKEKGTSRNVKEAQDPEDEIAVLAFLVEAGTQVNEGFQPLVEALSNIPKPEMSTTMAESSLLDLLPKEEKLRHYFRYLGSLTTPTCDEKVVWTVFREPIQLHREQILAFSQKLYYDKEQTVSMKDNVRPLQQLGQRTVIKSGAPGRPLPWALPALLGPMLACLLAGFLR

Regarding `O=S(=O)(O)O[C@H]1CC2c3ccccc3C1[C@@H]2O` (stereo partly drawn) [9(R(S))-Hydroxy-1,2,3,4-tetrahydro-1,4-methanonaphthalen-2(R(S))-yl sulfate (8)], the Ki turned out to be 32.7 µM at Carbonic anhydrase 1, 10.4 µM at Carbonic anhydrase 2, 199 µM on Carbonic anhydrase 4 and 221 µM on Carbonic anhydrase 6.

As for `O[C@@H]1CCCC[C@H]1O` [(1R,2R)-trans-1,2-cyclohexanediol], the inhibition constant Ki at Carbonic anhydrase 1 turned out to be 135 µM; at Carbonic anhydrase 2 it was 4.68 µM; on Carbonic anhydrase 4, 18.8 µM; at Carbonic anhydrase 6, 76.2 µM.

Consider `O[C@@H]1Cc2ccccc2C[C@H]1O` [trans-(2R(S),3R(S))-1,2,3,4-Tetrahydronaphthalene-2,3-diol (11)], for which the inhibition constant Ki worked out at 423 µM at Carbonic anhydrase 1, 32.4 µM on Carbonic anhydrase 2, 77.9 µM on Carbonic anhydrase 4 and 127 µM at Carbonic anhydrase 6.

In the case of `O=S(=O)(O)O[C@@H]1CC=CC[C@H]1O` [trans-(1R(S),6R(S))-6-Hydroxycyclohex-3-enyl hydrogen sulfate (4)], the inhibitory constant (Ki) on Carbonic anhydrase 1 came out at 41.3 µM; on Carbonic anhydrase 2, 2.13 µM; on Carbonic anhydrase 4, 13.7 µM; on Carbonic anhydrase 6 it was 93.1 µM.

In the case of `O[C@@H]1C2C[C@H](O)C1c1ccccc12` (stereo partly drawn) [9(R(S))-Hydroxy-1,2,3,4-tetrahydro-1,4-methanonaphthalen-2(R(S))-diol (9)], the Ki at Carbonic anhydrase 1 worked out at 142 µM; on Carbonic anhydrase 2 it was 23.7 µM; on Carbonic anhydrase 4, 234 µM; at Carbonic anhydrase 6, 278 µM.

For `O=S(=O)(O)O[C@@H]1CC/C=C\CC[C@H]1O` [trans-(1R(S),8R(S),Z)-8-Hydroxycyclooct-4-enyl hydrogen sulfate (6)], the Ki is 77.2 µM on Carbonic anhydrase 1, 5.41 µM at Carbonic anhydrase 2, 16.3 µM on Carbonic anhydrase 4 and 123 µM at Carbonic anhydrase 6.

A word on the Ki: it is a dissociation constant, usually derived from enzyme kinetics or from competition with a known ligand. High values mean a looser hold on the target, low ones a stronger hold on the target.

The values are drawn from BindingDB's records for doi:10.3109/14756366.2011.629198 (Dumlupinar University, 2012).
